Molecular target: T1, human MCH-1 receptor (Homo sapiens, UniProt Q99705)
T1 construct: expressed in transfected cells
Assay: Ca2+ mobilization experiment for the MCH-1 receptor (FLIPR), inhibition of MCH-induced Ca2+ mobilization
Format: cell-based
Details: CHO cells stably expressing human MCH-1 receptor, inhibition of MCH-induced Ca2+ response, read-out: MCH-1 pIC50 (converted)
Description: The interaction of the compounds of Formula (I) with MCH-1 receptors was assessed in in vitro transient calcium (Ca^2+) mobilization assays in the fluorimetric imaging plate reader (FLIPR) format (Sullivan et al. 1999, Methods Mol Biol 114:125-133). In general, the natural agonist (MCH) is incubated with cells expressing the MCH-1 receptor, which elicits a concentration-dependent transient mobilization of Ca^2+ from internal stores. The interaction of the test compounds with the receptor is assessed in competition experiments. Various concentrations of the test compound are added to the incubation mixture containing the receptor-expressing cells and a submaximal concentration of MCH. The test compound in proportion to its antagonist potency and its concentration inhibits MCH-induced Ca^2+ mobilization.
Chinese Hamster ovary cells (CHO) stably expressing the human MCH-1 receptor are grown in a 1:1 mixture of Dulbecco's Modified Eagles Medium (DMEM) and HAM's F12 medium including Glutamax™ (Invitrogen), supplemented with 10% heat-inactivated fetal bovine serum and 400 μg/ml geneticin.
Twenty-four hours before the experiment, MCH-1 receptor-expressing CHO cells are seeded in 20 μl (5,000 cells per well) into 384-well black wall, clear bottom microtiter plates (Costar). On the day of the experiment, 20 μl per well calcium assay kit containing 10 mM probenicide (Molecular Devices) is added. Cells are loaded for 90 min at 37° C. and 5% CO2 in a cell culture incubator. After loading, 20 μl of serial dilutions of the test compound are added and cells are further incubated for 20 min at room temperature in the dark. After 20 min, 20 μl of a submaximal MCH concentration is added and changes in intracellular calcium are recorded directly in a FLIPR III apparatus (Molecular devices).
Data from assays in the presence of compound were calculated as a percentage of total Ca^2+-responses measured in the absence of test compound. Inhibition curves, plotting percent of total Ca^2+-responses versus the log value of the concentration of the test compound, were automatically generated, and sigmoidal inhibition curves were fitted using non-linear regression. The pIC50 values of test compounds were derived from individual curves.

T1 sequence (Q99705 whole entry): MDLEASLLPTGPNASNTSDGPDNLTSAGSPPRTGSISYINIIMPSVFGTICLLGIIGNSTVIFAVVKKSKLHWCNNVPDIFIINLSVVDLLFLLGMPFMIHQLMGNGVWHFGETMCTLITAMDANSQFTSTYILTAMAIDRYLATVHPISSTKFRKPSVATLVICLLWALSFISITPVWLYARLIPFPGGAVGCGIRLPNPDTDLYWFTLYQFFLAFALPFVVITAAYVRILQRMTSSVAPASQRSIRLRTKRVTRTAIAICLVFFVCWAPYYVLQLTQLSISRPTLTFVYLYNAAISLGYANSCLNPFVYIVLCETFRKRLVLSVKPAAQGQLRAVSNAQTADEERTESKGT

SMILES	IC50 [nM]
CNC1CCN(c2ccc(-n3ccnc(NCCOc4ccccc4)c3=O)cc2)C1 (centres unmarked) [1-01]	501
CC(=O)N(C)C1CCN(c2ccc(-n3ccnc(NCCOc4ccccc4)c3=O)cc2)C1 (centres unmarked) [1-02]	251
CC(C)C(=O)N(C)C1CCN(c2ccc(-n3ccnc(NCCOc4ccccc4)c3=O)cc2)C1 (centres unmarked) [1-03]	39.8
CN(C(=O)OC(C)(C)C)C1CCN(c2ccc(-n3ccnc(NCCOc4ccccc4)c3=O)cc2)C1 (centres unmarked) [1-04]	1580
CN(C1CCN(c2ccc(-n3ccnc(NCCOc4ccccc4)c3=O)cc2)C1)S(C)(=O)=O (centres unmarked) [1-05]	> 10000
O=c1c(NCCOc2ccccc2)nccn1-c1ccc(N2CCNCC2)cc1 [1-06]	2000
CC(C)N1CCN(c2ccc(-n3ccnc(NCCOc4ccccc4)c3=O)cc2)CC1 [1-07]	1580
COc1cc(-n2ccnc(NCCOc3ccccc3)c2=O)ccc1N1CCC(O)C1 (centres unmarked) [1-08]	398
CNC1CCN(c2ccc(-n3ccnc(NCCOc4ccccc4)c3=O)cc2OC)C1 (centres unmarked) [1-09]	20
COc1cc(-n2ccnc(NCCOc3ccccc3)c2=O)ccc1N1CCC(N(C)C)C1 (centres unmarked) [1-10]	100
COc1cc(-n2ccnc(NCCOc3ccccc3)c2=O)ccc1N1CCC(N(C)C(=O)C(C)C)C1 (centres unmarked) [1-11]	100
COc1cc(-n2ccnc(NCCOc3ccccc3)c2=O)ccc1N1CCC(N(C)C(=O)C2CC2)C1 (centres unmarked) [1-12]	79.4
COc1cc(-n2ccnc(NCCOc3ccccc3)c2=O)ccc1N1CCC(N)CC1 [1-13]	79.4
COc1cc(-n2ccnc(NCCOc3ccccc3)c2=O)ccc1N1CCC(NC(C)=O)CC1 [1-14]	316
COc1cc(-n2ccnc(NCCOc3ccccc3)c2=O)ccc1N1CCC(NC(=O)C(C)C)CC1 [1-15]	100
O=c1c(NCCOc2ccccc2)nccn1-c1ccc(C=CCN2CCCC2)cc1 [1-16]	100
COc1cc(-n2ccnc(NCCOc3ccccc3)c2=O)ccc1/C=C/CN1CCCC1 [1-17]	31.6
COc1cc(-n2ccnc(NCCOc3ccccc3)c2=O)ccc1/C=C/CN1CCOCC1 [1-18]	39.8
CN(C)CCNc1ccc(-n2ccnc(NCCOc3ccccc3)c2=O)cc1 [1-19]	100
O=c1c(NCCOc2ccccc2)nccn1-c1ccc(NCCN2CCCC2)cc1 [1-20]	200
CN(C)CCCNc1ccc(-n2ccnc(NCCOc3ccccc3)c2=O)cc1 [1-21]	501
CN(C)CC(=O)Nc1ccc(-n2ccnc(NCCOc3ccccc3)c2=O)cc1 [1-22]	2000
CNCCOc1ccc(-n2ccnc(NCCOc3ccccc3)c2=O)cc1 [1-23]	1260

SMILES	IC50 [nM]
CCCN(C)CCOc1ccc(-n2ccnc(NCCOc3ccccc3)c2=O)cc1 [1-24]	158
CN(CCOc1ccc(-n2ccnc(NCCOc3ccccc3)c2=O)cc1)C1CCCCC1 [1-25]	631
CN(C)CCN(C)CCOc1ccc(-n2ccnc(NCCOc3ccccc3)c2=O)cc1 [1-27]	> 10000
CC(C)N(CCOc1ccc(-n2ccnc(NCCOc3ccccc3)c2=O)cc1)C(C)C [1-28]	501
COCCN(C)CCOc1ccc(-n2ccnc(NCCOc3ccccc3)c2=O)cc1 [1-29]	1580
CCCC(=O)N(C)CCOc1ccc(-n2ccnc(NCCOc3ccccc3)c2=O)cc1 [1-31]	316
CN(CCOc1ccc(-n2ccnc(NCCOc3ccccc3)c2=O)cc1)CCc1ccccc1 [1-32]	794
O=c1c(NCCOc2ccccc2)nccn1-c1ccc(OCCN(CCO)Cc2ccccc2)cc1 [1-33]	794
CCN(CCOc1ccc(-n2ccnc(NCCOc3ccccc3)c2=O)cc1)Cc1ccncc1 [1-34]	1000
O=c1c(NCCOc2ccccc2)nccn1-c1ccc(OCCN2CCCC2)cc1 [1-35]	501
O=c1c(NCCOc2ccccc2)nccn1-c1ccc(OCCN2CCC(O)C2)cc1 (centres unmarked) [1-36]	316
O=C1CCC(=O)N1CCOc1ccc(-n2ccnc(NCCOc3ccccc3)c2=O)cc1 [1-37]	100
O=c1c(NCCOc2ccccc2)nccn1-c1ccc(OCCN2CCCCC2)cc1 [1-38]	1580
O=c1c(NCCOc2ccccc2)nccn1-c1ccc(OCCN2CCC(F)CC2)cc1 [1-39]	200
O=C1CCN(CCOc2ccc(-n3ccnc(NCCOc4ccccc4)c3=O)cc2)CC1 [1-40]	251
NC(=O)C1CCN(CCOc2ccc(-n3ccnc(NCCOc4ccccc4)c3=O)cc2)CC1 [1-41]	631
COC(=O)C1CCN(CCOc2ccc(-n3ccnc(NCCOc4ccccc4)c3=O)cc2)CC1 [1-42]	158
O=c1c(NCCOc2ccccc2)nccn1-c1ccc(OCCN2CCC3(CC2)OCCO3)cc1 [1-43]	200
O=c1c(NCCOc2ccccc2)nccn1-c1ccc(OCCN2CCN(c3ccccc3)CC2)cc1 [1-45]	794
O=c1c(NCCOc2ccccc2)nccn1-c1ccc(OCCCN2CCCC2)cc1 [1-46]	3160
O=c1c(NCCOc2ccccc2)nccn1-c1ccc(OCCCCN2CCCC2)cc1 [1-47]	1000
Cc1cc(-n2ccnc(NCCOc3ccccc3)c2=O)ccc1OCCN1CCCC1 [1-48]	50.1
C=CCc1cc(-n2ccnc(NCCOc3ccccc3)c2=O)ccc1OCCN1CCCC1 [1-49]	31.6

The next lines start with the values.

IC50 [nM]	SMILES
126	O=c1c(NCCOc2ccccc2)nccn1-c1ccc(OCCN2CCCC2)c(CO)c1 [1-51]
158	COCc1cc(-n2ccnc(NCCOc3ccccc3)c2=O)ccc1OCCN1CCCC1 [1-52]
100	CC(=O)c1cc(-n2ccnc(NCCOc3ccccc3)c2=O)ccc1OCCN1CCCC1 [1-53]
200	COC(=O)c1cc(-n2ccnc(NCCOc3ccccc3)c2=O)ccc1OCCN1CCCC1 [1-54]
1000	NC(=O)c1cc(-n2ccnc(NCCOc3ccccc3)c2=O)ccc1OCCN1CCCC1 [1-55]
7940	O=c1c(NCCOc2ccccc2)nccn1-c1ccc(OCCN2CCCC2)c(Cl)c1 [1-56]
63.1	COc1cc(-n2ccnc(NCCOc3ccccc3)c2=O)ccc1OC1CNC1 [1-57]
63.1	COc1cc(-n2ccnc(NCCOc3ccccc3)c2=O)ccc1OC1CCNCC1 [1-58]
63.1	COc1cc(-n2ccnc(NCCOc3ccccc3)c2=O)ccc1OCCNC1CC1 [1-59]
200	COc1cc(-n2ccnc(NCCOc3ccccc3)c2=O)ccc1OCCNCCO [1-60]
100	COc1cc(-n2ccnc(NCCOc3ccccc3)c2=O)ccc1OCCN(C)C(C)=O [1-61]
50.1	CCCC(=O)N(C)CCOc1ccc(-n2ccnc(NCCOc3ccccc3)c2=O)cc1OC [1-62]
200	COc1cc(-n2ccnc(NCCOc3ccccc3)c2=O)ccc1OCCN(C)C(=O)CN(C)C [1-63]
100	COCC(=O)N(C)CCOc1ccc(-n2ccnc(NCCOc3ccccc3)c2=O)cc1OC [1-64]
100	COc1cc(-n2ccnc(NCCOc3ccccc3)c2=O)ccc1OCCN(C)C(=O)C1CCCC1 [1-65]
251	COc1cc(-n2ccnc(NCCOc3ccccc3)c2=O)ccc1OCCN(C)C(=O)c1ccccc1 [1-66]
63.1	COc1cc(-n2ccnc(NCCOc3ccccc3)c2=O)ccc1OCCN1CCCC1 [1-67]

IC50 [nM]	SMILES
126	COc1cc(-n2ccnc(NCCOc3ccccc3)c2=O)ccc1OCCN1CCC(O)C1 (centres unmarked) [1-68]
5.01	COc1cc(-n2ccnc(NCCOc3ccccc3)c2=O)ccc1OCCN1CCC(F)CC1 [1-69]
12.6	COc1cc(-n2ccnc(NCCOc3ccccc3)c2=O)ccc1OCCN1CCC(F)CC1 [1-70]
100	COc1cc(-n2ccnc(NCCOc3ccccc3)c2=O)ccc1OCCN1CCC(C#N)CC1 [1-71]
50.1	COc1cc(-n2ccnc(NCCOc3ccccc3)c2=O)ccc1OCCN1CCCC(CO)C1 (centres unmarked) [1-72]
50.1	COc1cc(-n2ccnc(NCCOc3ccccc3)c2=O)ccc1OCCN1CCC(F)(F)CC1 [1-73]
79.4	COc1cc(-n2ccnc(NCCOc3ccccc3)c2=O)ccc1OCCN1CCOCC1 [1-74]
100	COc1cc(-n2ccnc(NCCOc3ccccc3)c2=O)ccc1OCCCN1CCCC1 [1-75]
126	COc1cc(-n2ccnc(NCCOc3ccccc3)c2=O)ccc1OCCCN1CCC(O)C1 (centres unmarked) [1-76]
50.1	COc1cc(-n2ccnc(NCCOc3ccccc3)c2=O)ccc1OCCCN1CCCCC1 [1-77]
79.4	COc1cc(-n2ccnc(NCCOc3ccccc3)c2=O)ccc1OCCCN1CCCC(CO)C1 (centres unmarked) [1-78]
39.8	COc1cc(-n2ccnc(NCCOc3ccccc3)c2=O)ccc1OCCCN1CCC(F)(F)CC1 [1-79]
63.1	COc1cc(-n2ccnc(NCCOc3ccccc3)c2=O)ccc1OCCCN1CCOCC1 [1-80]
63.1	COc1cc(-n2ccnc(NCCOc3ccccc3)c2=O)ccc1OCC(C)N1CCCC1 (centres unmarked) [1-82]
126	COc1cc(-n2ccnc(CCCc3ccccc3)c2=O)ccc1OCCN1CCCC1 [2-01]
126	O=c1c(NCCc2ccccc2)nccn1-c1ccc(OCCN2CCCC2)cc1 [2-02]
501	COc1cc(-n2ccnc(N(C)CCc3ccccc3)c2=O)ccc1OCCN1CCCC1 [2-05]

Reference: US8329704B2, “Substituted pyrazinone derivatives for use in MCH-1 mediated diseases” (Janssen Pharmaceutica, N.V., priority 2005, dated 2012)
